The source of these data is US20200270233A1, “DHFR INHIBITORS, COMPOSITIONS, AND METHODS RELATED THERETO” (Vyera Pharmaceuticais LLC, priority 2017, published 2020).

pIC50: −log10 of the molar value. Where two headings read alike, the source gives them in different places.

One experiment addresses T1, hDHFR (Homo sapiens, UniProt P00374).
T1 sequence (P00374 1-187): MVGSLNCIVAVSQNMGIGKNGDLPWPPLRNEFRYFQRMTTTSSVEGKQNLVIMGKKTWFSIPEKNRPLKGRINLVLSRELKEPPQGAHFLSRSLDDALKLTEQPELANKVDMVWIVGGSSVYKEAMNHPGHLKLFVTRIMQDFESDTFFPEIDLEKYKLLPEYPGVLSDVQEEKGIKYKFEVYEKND
In kind it is biochemical. The following applies: for IC50: pIC50 = -log10 IC50, at least three replicates, read-out: hDHFR pIC50-DHFR primary assay (converted).

Another experiment has as its target T. cruzi DHFR (tcDHFR) (Trypanosoma cruzi, UniProt Q27793). Put plainly: biochemical. The following applies: for Average DHFR selectivity (h/tc) / IC50: Table 17; for Average DHFR selectivity (h/tc): hDHFR IC50/tcDHFR IC50; for IC50: pIC50 = -log10 IC50, at least three replicates, read-out: tcDHFR pIC50-DHFR primary assay (converted).
For the next experiment, the target named is T2, T. gondii DHFR (tgDHFR) (Toxoplasma gondii, UniProt Q07422).
T2 sequence (Q07422 1-610): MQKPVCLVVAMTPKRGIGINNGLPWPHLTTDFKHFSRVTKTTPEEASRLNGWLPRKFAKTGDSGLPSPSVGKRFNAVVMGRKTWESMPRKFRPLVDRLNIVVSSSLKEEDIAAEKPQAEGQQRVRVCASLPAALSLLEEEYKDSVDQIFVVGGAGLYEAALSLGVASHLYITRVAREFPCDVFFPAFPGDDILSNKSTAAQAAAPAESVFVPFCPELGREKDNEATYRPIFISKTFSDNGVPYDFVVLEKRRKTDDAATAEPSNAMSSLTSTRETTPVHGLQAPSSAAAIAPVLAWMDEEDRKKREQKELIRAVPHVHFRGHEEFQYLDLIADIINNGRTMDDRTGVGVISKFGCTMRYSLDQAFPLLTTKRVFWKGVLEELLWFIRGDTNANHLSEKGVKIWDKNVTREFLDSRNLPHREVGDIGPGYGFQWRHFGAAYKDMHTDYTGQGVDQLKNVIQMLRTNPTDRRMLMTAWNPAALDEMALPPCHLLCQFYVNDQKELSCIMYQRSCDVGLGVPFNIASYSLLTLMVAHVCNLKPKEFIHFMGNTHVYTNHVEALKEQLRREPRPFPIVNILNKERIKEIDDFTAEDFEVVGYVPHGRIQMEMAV
Nature of the experiment: biochemical. The following applies: for Average DHFR selectivity (h/tg) / IC50: Table 16; for Average DHFR selectivity (h/tg): hDHFR IC50/tgDHFR IC50; for IC50: pIC50 = -log10 IC50, at least three replicates, read-out: tgDHFR pIC50-DHFR primary assay (converted).

T. cruzi DHFR (tcDHFR), sequence (Q27793 whole entry): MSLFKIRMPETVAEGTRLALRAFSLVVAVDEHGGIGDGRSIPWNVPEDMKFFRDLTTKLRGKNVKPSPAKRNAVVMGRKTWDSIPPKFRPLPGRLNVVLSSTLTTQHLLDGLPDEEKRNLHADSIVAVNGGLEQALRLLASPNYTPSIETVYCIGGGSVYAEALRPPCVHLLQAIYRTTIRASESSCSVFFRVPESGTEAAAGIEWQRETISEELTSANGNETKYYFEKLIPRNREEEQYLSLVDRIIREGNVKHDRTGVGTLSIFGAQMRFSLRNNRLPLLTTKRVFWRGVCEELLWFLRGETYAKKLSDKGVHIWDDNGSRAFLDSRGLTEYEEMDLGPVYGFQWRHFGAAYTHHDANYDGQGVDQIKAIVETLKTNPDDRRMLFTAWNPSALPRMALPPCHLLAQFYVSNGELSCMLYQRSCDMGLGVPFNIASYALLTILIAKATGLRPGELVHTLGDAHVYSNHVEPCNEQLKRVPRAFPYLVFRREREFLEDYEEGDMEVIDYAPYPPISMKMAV

Take `Nc1ncc(N2CCN(c3ccc(Cl)nc3)CC2)c(N)n1` [Compound 141, 5-(4-(6-chloropyridin-3-yl)piperazin-1-yl)pyrimidine-2,4-diamine]: at hDHFR (Table 17), the IC50 is 417 nM. On T. cruzi DHFR (tcDHFR), the “Average DHFR selectivity (h/tc)” value is listed as 67.2 and the IC50 is 6.31 nM.

In general, pIC50 refers to the IC50 on a negative log10 scale, so that one unit is a factor of ten. Read a high pIC50 as a low IC50. Take `Nc1ncc(N2CCN(c3ccc(F)cc3)CC2)c(N)n1` [Compound 116, 5-(4-(4-fluorophenyl)piperazin-1-yl)pyrimidine-2,4-diamine]: on hDHFR (Table 17), the IC50 was 5010 nM. At T. cruzi DHFR (tcDHFR), this molecule had a pIC50 of 7.30.

In the case of `Nc1ncc(N2CCN(c3cccc(Cl)n3)CC2)c(N)n1` [Compound 150, 5-(4-(6-chloropyridin-2-yl)piperazin-1-yl)pyrimidine-2,4-diamine], the IC50 on hDHFR (Table 17) was 653 nM. On T. cruzi DHFR (tcDHFR), the “Average DHFR selectivity (h/tc)” value came out at 59.955 and the IC50 was 10.8 nM.

For the molecule `Nc1ncc(N2CCN(c3ccc(Cl)cn3)CC2)c(N)n1` [Compound 149, 5-(4-(5-chloropyridin-2-yl)piperazin-1-yl)pyrimidine-2,4-diamine], the IC50 at hDHFR (Table 17) is 1970 nM; on T. cruzi DHFR (tcDHFR), 16.2 nM. For the same molecule, on T. cruzi DHFR (tcDHFR), the “Average DHFR selectivity (h/tc)” value was 122.69.

Take `COc1ccc(N2CCN(c3cnc(N)nc3N)CC2)cn1` [Compound 188, 5-(4-(6-methoxypyridin-3-yl)piperazin-1-yl)pyrimidine-2,4-diamine]: the IC50 on hDHFR (Table 17) was 2690 nM. For the same molecule, at T. cruzi DHFR (tcDHFR), the “Average DHFR selectivity (h/tc)” value is on record as 209.762 and the IC50 is 14 nM.

For `Cc1ccc(N2CCN(c3cnc(N)nc3N)CC2)cc1` [Compound 8, 5-(4-(p-tolyl)piperazin-1-yl)pyrimidine-2,4-diamine], the pIC50 on T. cruzi DHFR (tcDHFR) was 7.74.

`Nc1ncc(N2CCN(c3ccc(F)c(Cl)c3)CC2)c(N)n1` [Compound 143, 5-(4-(3-chloro-4-fluorophenyl)piperazin-1-yl)pyrimidine-2,4-diamine]: the IC50 on hDHFR (Table 17) was 684 nM. On T. cruzi DHFR (tcDHFR), the “Average DHFR selectivity (h/tc)” value is reported as 41.735 and the IC50 was 16.6 nM.

Turning to `Nc1ncc(N2CCN(c3cccc(-c4ccncn4)c3)CC2)c(N)n1` [Compound 102, 5-(4-(3-(pyrimidin-4-yl)phenyl)piperazin-1-yl)pyrimidine-2,4-diamine], the IC50 at hDHFR (Table 17) was 1660 nM. The same molecule had a pIC50 against T. cruzi DHFR (tcDHFR) of 7.80.

As to `Nc1ncc(N2CCN(c3cc(Cl)ccc3F)CC2)c(N)n1` [Compound 144, 5-(4-(5-chloro-2-fluorophenyl)piperazin-1-yl)pyrimidine-2,4-diamine], the IC50 at hDHFR (Table 17) is 8610 nM. Also, at T. cruzi DHFR (tcDHFR), the “Average DHFR selectivity (h/tc)” value stood at 52.69 and the IC50 was 170 nM.

For the molecule `Nc1ncc(N2CCN(c3cncc(Br)c3)CC2)c(N)n1` [Compound 145, 5-(4-(5-bromopyridin-3-yl)piperazin-1-yl)pyrimidine-2,4-diamine], at hDHFR (Table 17), the IC50 is 1170 nM. Moreover, on T. cruzi DHFR (tcDHFR), the “Average DHFR selectivity (h/tc)” value is given as 56.7 and the IC50 was 21.6 nM.

For `COc1cccc(N2CCN(c3cnc(N)nc3N)CC2)c1` [Compound 9, 5-(4-(3-methoxyphenyl)piperazin-1-yl)pyrimidine-2,4-diamine], on T. cruzi DHFR (tcDHFR), the pIC50 is 7.54.

Take `CCc1nc(N)nc(N)c1-c1ccc(Cl)cc1` [pyrimethamine, reference compound]: the pIC50 on T. cruzi DHFR (tcDHFR) is 6.00.

With `Nc1ncc(N2CCN(c3ccc(C(F)(F)F)cn3)CC2)c(N)n1` [Compound 140, 5-(4-(5-(trifluoromethyl)pyridin-2-yl)piperazin-1-yl)pyrimidine-2,4-diamine], the IC50 at hDHFR (Table 17) was 617 nM. Also, on T. cruzi DHFR (tcDHFR), the “Average DHFR selectivity (h/tc)” value is on record as 90.29 and the IC50 was 7 nM.

As for `COc1ncc(-c2cncc(N3CCN(c4cnc(N)nc4N)CC3)c2)cn1` [Compound 162], at T. gondii DHFR (tgDHFR), the “Average DHFR selectivity (h/tg)” value is recorded as 117.08 and the IC50 is 12.3 nM. Moreover, the IC50 on hDHFR (Table 16) is 1450 nM.

For the molecule `COc1ncc(-c2cccc(N3CCN(c4cnc(N)nc4N)CC3)c2F)cn1` [Compound 159], on T. gondii DHFR (tgDHFR), the “Average DHFR selectivity (h/tg)” value came to 80.32. The IC50 was 30.2 nM at T. gondii DHFR (tgDHFR) and 2340 nM at hDHFR (Table 16).

At T. gondii DHFR (tgDHFR), `Nc1ncc(N2CCN(c3cccc(C4CCOCC4)c3)CC2)c(N)n1` [Compound 110, 5-(4-(3-(tetrahydro-2H-pyran-4-yl)phenyl)piperazin-1-yl)pyrimidine-2,4-diamine] had a pIC50 of 7.46. Besides, the IC50 is 6170 nM at hDHFR (Table 16) and 7760 nM on hDHFR (Table 20).

As for `COc1ncc(-c2cccc(N3CC=C(c4cnc(N)nc4N)CC3)c2)cn1` [Compound 182, 5-(1-(3-(2-methoxypyrimidin-5-yl)phenyl)-1,2,3,6-tetrahydropyridin-4-yl)pyrimidine-2,4-diamine], on T. gondii DHFR (tgDHFR), the “Average DHFR selectivity (h/tg)” value is given as 37.84 and the IC50 was 2.04 nM. Also, the IC50 at hDHFR (Table 16) is 77.6 nM.

On T. gondii DHFR (tgDHFR), `Nc1ncc(N2CCN(c3ccc(Cl)c(Cl)c3)CC2)c(N)n1` [Compound 1, 5-(4-(3,4-dichlorophenyl)piperazin-1-yl)pyrimidine-2,4-diamine] showed a pIC50 of 7.86. In addition, the IC50 on hDHFR (Table 16) is 75.9 nM.

For `CCc1nc(N)nc(N)c1N1CCN(c2ccc(F)cn2)CC1` [Compound 44, 6-ethyl-5-(4-(5-fluoropyridin-2-yl)piperazin-1-yl)pyrimidine-2,4-diamine], at T. gondii DHFR (tgDHFR), the pIC50 is 8.38. Also, on hDHFR (Table 16), the IC50 was 295 nM.

Regarding `Cc1ncc(-c2cccc(C3CCN(c4cnc(N)nc4N)CC3)c2)cn1` [Compound 113, 5-(4-(3-(2-methylpyrimidin-5-yl)phenyl)piperidin-1-yl)pyrimidine-2,4-diamine], the pIC50 against T. gondii DHFR (tgDHFR) is 8.21. For the same molecule, the IC50 at hDHFR (Table 16) was 372 nM.

Turning to `COc1ncc(-c2cccc(N3CCN(c4cnc(N)nc4N)CC3)n2)cn1` [Compound 158], the “Average DHFR selectivity (h/tg)” value on T. gondii DHFR (tgDHFR) is reported as 17.78. Further, the results for the IC50 at T. gondii DHFR (tgDHFR) and on hDHFR (Table 16) were 1.02 nM and 18.2 nM, respectively.

For the molecule `Nc1ncc(N2CCN(c3cccc(-c4cccc(F)c4)c3)CC2)c(N)n1` [Compound 64], at T. gondii DHFR (tgDHFR), the pIC50 is 7.94. Besides, the IC50 at hDHFR (Table 16) was 1070 nM.

Turning to `Nc1ncc(N2CCC(c3ccccc3)CC2)c(N)n1` [Compound 15, 5-(4-phenylpiperidin-1-yl)pyrimidine-2,4-diamine], on T. gondii DHFR (tgDHFR), the pIC50 is 6.79. Further, the IC50 at hDHFR (Table 16) was 4070 nM.

As for `C[C@@H]1CN(c2cnc(N)nc2N)CCN1c1cccc(C2CCOCC2)c1` [Compound 176], at T. gondii DHFR (tgDHFR), the “Average DHFR selectivity (h/tg)” value was found to be 47.03 and the IC50 is 2.29 nM. The IC50 at hDHFR (Table 16) is 107 nM.

`CCc1nc(N)nc(N)c1N1CCN(c2cccc(OC)c2)CC1` [Compound 33, 6-ethyl-5-(4-(3-methoxyphenyl)piperazin-1-yl)pyrimidine-2,4-diamine]: the pIC50 on T. gondii DHFR (tgDHFR) is 8.36; at hDHFR (hDHFR pIC50-DHFR primary assay) it was 6.28.

In the case of `CN(Cc1cnc2nc(N)nc(N)c2n1)c1ccc(C(=O)N[C@@H](CCC(=O)O)C(=O)O)cc1` [Methotrexate], the pIC50 against T. cruzi DHFR (tcDHFR) is 8.96.

Molecule `CC1CN(c2cnc(N)nc2N)CCN1c1cccc(-c2ccccc2)c1` (stereo not drawn) [Compound 26, 5-(4-([1,1′-biphenyl]-3-yl)-3-methylpiperazin-1-yl)pyrimidine-2,4-diamine] had a negative logarithm of the IC50 (pIC50) at T. gondii DHFR (tgDHFR) of 8.70. The IC50 on hDHFR (Table 16) is 30.2 nM.

Turning to `CC1CN(c2cccc(-c3ccccc3)c2)CCN1c1cnc(N)nc1N` (stereo not drawn) [Compound 27, 5-(4-([1,1′-biphenyl]-3-yl)-2-methylpiperazin-l-yl)pyrimidine-2,4-diamine], the pIC50 on T. gondii DHFR (tgDHFR) was 6.86. On hDHFR (Table 16), the IC50 was 30200 nM.

`Nc1nc(N)c(N2CCN(c3ccccc3)CC2)c(CC2CC2)n1` [Compound 106] gave a pIC50 against T. gondii DHFR (tgDHFR) of 7.56. The IC50 on hDHFR (Table 16) is 5890 nM.

`CCCc1nc(N)nc(N)c1N1CCN(c2ccc(F)cc2)CC1` [Compound 52, 5-(4-(4-fluorophenyl)piperazin-1-yl)-6-propylpyrimidine-2,4-diamine]: the pIC50 at T. gondii DHFR (tgDHFR) is 7.48. Moreover, the IC50 at hDHFR (Table 16) is 10000 nM.

Molecule `N#Cc1cccc(-c2cccc(N3CCN(c4cnc(N)nc4N)CC3)c2)c1` [Compound 67] had a negative-log IC50 (pIC50) against T. gondii DHFR (tgDHFR) of 8.41. The IC50 at hDHFR (Table 16) is 302 nM.

For `CCc1ncc(-c2cccc(N3CCN(c4cnc(N)nc4N)CC3)c2)cn1` [Compound 95], the negative logarithm of the IC50 (pIC50) at T. gondii DHFR (tgDHFR) is 8.14. For the same molecule, the figures for the IC50 on hDHFR (Table 16) and at hDHFR (Table 18) were 1580 nM and 1410 nM, respectively.
